Experimental findings from patent publication US9765017B2, “Allosteric hemoglobin modifiers with nitric oxide releasing moiety” (VIRGINIA COMMONWEALTH UNIVERSITY, priority 2013, dated 2017) are described below.

One series deals with T1, Hb (Homo sapiens, UniProt P68871+P69905).
T1 construct: Normal whole blood used in some of the functional assays was collected from adult donors; from tissue; host or cells: normal human whole blood (red cells) from adult donors
Description: Effect on Hb affinity for oxygen (oxygen equilibrium curve study) using normal whole blood. Type of series: cell-based. The conditions noted are these: 2 mM compound; for ΔP50: versus DMSO control, whole blood; for N (Hill coefficient) / P50: whole blood (Hct ~29%), 37° C. From the text:
RSR-13 is an allosteric effector of Hb that acts by decreasing Hb affinity for O2, and as a result allows release of more O2 to tissues.^26 In this study, a nitrate ester moiety was incorporated onto RSR-13. It was proposed that, in vivo, the NO will cleave off, resulting in the parent compound and free NO, the former acting as right-shifter of the oxygen equilibrium curve while the latter is released into the vasculature. The following describe the synthesis of three nitrate esters of RSR-13, including DD-1, DD-2 and DD-3 (FIGS. 1-3). Other NO containing RSR-13 derivatives, such as those referenced above may be synthesized according to the same or similar processes. Normal whole blood used in some of the functional assays was collected from adult donors at the Virginia Commonwealth University after informed consent. Hb used for structural studies was purified from discarded normal blood samples. The use of these human samples is in accordance with regulations of the IRB for Protection of Human Subjects.
The effect of DD-1 on Hb affinity for oxygen was studied using whole blood with RSR-13 as a positive control. Solution of DD-1 and RSR-13 was added to 2 mL of whole blood (Hemocrit of ˜29%) to make a final drug concentration of 2 mM. Time-dependent studies were carried out at various time points (ranging from 1 h to 12 h) at 37° C. Briefly, blood-drug mixture samples at various time points were incubated in IL 237 tonometer (Instrumentation Laboratories, Inc., Lexington, Mass.) for about 5-7 min at 37° C. against gas mixture containing O2 concentrations of 0.804%, 2.935% and 8.785% and allowed to equilibrate at O2 tensions of 6, 20, 60 mmHg, respectively. After equilibration, the sample was removed via syringe and aspirated into a ABL 700 series table top automated blood gas analyzer (Radiometer America, Inc., Westlake, Ohio) to determine total hemoglobin (tHb), hematocrit (Hct), pH, pCO2, partial pressure of oxygen (pO2), and the Hb oxygen saturation values (sO2). The measured values of pO2 and sO2 at each oxygen saturation level were then subjected to a non-linear regression analysis using the program Scientist (Micromath, Salt Lake City, Utah) with the following equation:
[formula] This equation was used to calculate P50 and Hill coefficient (N) values. Corresponding control experiments without the test compound (P50control) but containing DMSO were also performed.

Series [1] is described as follows: Griess assay of nitric oxide release (quantitated as NO2- release). It counts as physicochemical. The conditions noted are these: 2 mM solution in 0.1 M phosphate buffer pH 7.4 mixed with 36 mM L-cysteine, 37° C., anaerobic. How it is done:
A Griess assay was used to measure the NO releasing ability of DD-1 following literature procedures.^29-31 Solution of the test compound (1 mL of a 2 mM solution in 0.1 M phosphate buffer (pH 7.4)) was mixed thoroughly with a freshly prepared solution of L-cysteine (1 mL of a 36 mM solution in 0.1 M phosphate buffer, pH 7.4), and incubated at 37° C. for 1 and 16 h under anaerobic conditions. After exposure to air for 10 min at 25° C., an aliquot of the Griess reagent (1 mL) [freshly prepared by mixing equal volumes of 1.0% sulfanilamide (prepared and stored in aqueous 5% phosphoric acid) and 0.1% N-naphthylethylenediamine dihydrochloride in water] was added to equal volume (1 mL) of each incubation solution after mixing. After 10 min, absorbance was measured at 540 nm using a Hewlett Packard (Agilent) 8453 UV-visible Spectroscopy. NaNO2 solutions of 1-100 μM concentrations were used to prepare a standard nitrite curve of absorbance (nm) versus concentration (μM), and the NO released by DD-1 (quantitated as NO2^−release in μM) was calculated from the standard nitrite curve by extrapolation of the absorbance.
(Nitrite, measured by Griess reagent, commonly stands in for NO production.)

Series [2] in a line: Stability of DMSO stock solution checked by UPLC-MS. The following applies: 100 μM in DMSO, 3 months at −20° C., at least 6 freeze-thaw cycles. Type of series: physicochemical. How it is done:
The stability of nitrate esters was checked by performing UPLC-MS on a previously prepared stock solution of DD-1. A 100 μM stock solution was prepared in DMSO and stored for 3 months at −20° C. during which time it was exposed to at least 6 freeze-thaw cycles.

SMILES strings stand for the structures.

T1 sequence (P69905 2-142 limits assumed): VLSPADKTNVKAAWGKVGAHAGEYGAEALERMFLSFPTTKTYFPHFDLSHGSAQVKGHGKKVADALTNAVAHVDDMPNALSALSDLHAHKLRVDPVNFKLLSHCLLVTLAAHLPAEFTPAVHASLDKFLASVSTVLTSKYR
T1 sequence (P68871 2-147 limits assumed): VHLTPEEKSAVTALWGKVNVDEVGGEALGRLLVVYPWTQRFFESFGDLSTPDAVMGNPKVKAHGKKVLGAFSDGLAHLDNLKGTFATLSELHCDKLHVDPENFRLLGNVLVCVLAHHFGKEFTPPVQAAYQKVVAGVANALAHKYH

On to `Cc1cc(C)cc(NC(=O)Cc2ccc(OC(C)(C)C(=O)OCCO[N+](=O)[O-])cc2)c1` [DD-1, 2-(Nitrooxy)ethyl 2-(4-(2-((3,5-dimethylphenyl)amino)-2-oxoethyl)phenoxy)-2-methylpropanoate], for which the ΔP50 at Hb (incubation time 1 h) is reported as 3.2 mmHg; at Hb (incubation time 2 h), 6.3 mmHg; at Hb (incubation time 4 h), 16.3 mmHg; on Hb (incubation time 8 h), 25.4 mmHg; at Hb (incubation time 12 h) it was 27.8 mmHg. The “N (Hill coefficient)” value at Hb (incubation time 1 h) is listed as 2.3; at Hb (incubation time 2 h), 2.1; at Hb (incubation time 4 h), 1.9; at Hb (incubation time 8 h) it was 1.7; on Hb (incubation time 12 h), 1.7. In addition, the P50 at Hb (incubation time 1 h) was found to be 35.7 mmHg; on Hb (incubation time 2 h), 39.2 mmHg; on Hb (incubation time 4 h), 49.9 mmHg; at Hb (incubation time 8 h) it was 60.3 mmHg; on Hb (incubation time 12 h), 64.8 mmHg. In addition, in series [1] (1 h incubation), the “NO2- release after 1 hour” value came to 9.61 µM. The “NO2- release after 16 hours” value in series [1] (16 h incubation) worked out at 5.35 µM. Moreover, the “Stability of stock solution” value in series [2] is given as “stable”.
With `Cc1cc(C)cc(NC(=O)Cc2ccc(OC(C)(C)C(=O)O)cc2)c1` [RSR-13, 2-[4-[2-[(3,5-dimethylphenyl)amino]-2-oxoethyl]phenoxy]-2-methylpropanoic acid, reference compound], the ΔP50 at Hb (incubation time 1 h) turned out to be 15.3 mmHg; at Hb (incubation time 2 h) it was 15.0 mmHg; on Hb (incubation time 4 h), 16.1 mmHg; at Hb (incubation time 8 h), 16.9 mmHg; at Hb (incubation time 12 h), 15.6 mmHg. Further, the “N (Hill coefficient)” value at Hb (incubation time 1 h) turned out to be 1.8; at Hb (incubation time 2 h), 1.9; on Hb (incubation time 4 h), 1.8; at Hb (incubation time 8 h) it was 1.8; at Hb (incubation time 12 h), 1.9. The P50 turned out to be 47.8 mmHg on Hb (incubation time 1 h); 47.9 mmHg at Hb (incubation time 2 h); 49.7 mmHg at Hb (incubation time 4 h); 51.8 mmHg on Hb (incubation time 8 h); 52.6 mmHg at Hb (incubation time 12 h).
